From ChEMBL document CHEMBL6096702, “Discovery of a Novel p38α-MK2 Complex Inhibitor as a Potential Choice for Autoimmune Diseases” (J Med Chem, 2025)
Calls of active or inactive are those of the source. The rule behind the calls is not given here.

Tests used:
[1] = AUC (0 to 24 hrs) in female Lewis rat at 1 mg/kg, po measured after 24 hrs by LC-MS/MS analysis; type: ADME, organism-based; conditions: in vivo
[2] = Cmax in male Sprague-Dawley rat at 2 mg/kg, po measured after 24 hrs by LC-MS/MS analysis; type: ADME, organism-based; conditions: in vivo
[3] = AUClast in male Sprague-Dawley rat at 2 mg/kg, po measured after 24 hrs by LC-MS/MS analysis; type: ADME, organism-based; conditions: in vivo
[4] = Half-life in female Lewis rat at 1 mg/kg, po measured after 24 hrs by LC-MS/MS analysis; type: ADME, organism-based; conditions: in vivo
[5] = test system: Rattus norvegicus; assay: Antiarthritic activity in Mycobacterium tuberculosis H37R-induced female Lewis rat model of arthritis at 1 mg/kg, po administered twice daily for 15 days starting from day 13 after adjuvant administration; type: functional, organism-based; conditions: time 15.0 day
[6] = Selectivity ratio of IC50 for inhibition of N-terminal GST-tagged wildtype human P38alpha (4 to 152 residues) extracted from Escherichia coli/GST-tagged PRAK (unknown origin) to IC50 for inhibition of N-terminal GST-tagged wildtype human P38alpha (4 to 152 residues) extracted from Escherichia coli/GST-tagged MK2 (unknown origin)
[7] = AUClast in male Beagle dog at 2 mg/kg, po measured after 24 hrs by LC-MS/MS analysis; type: ADME, organism-based, Canis lupus familiaris; conditions: in vivo
[8] = test system: PBMC; assay: Inhibition of LPS-induced IL-6 production in human PBMC cells at 0.01 to 10000 nM preincubated with compound for 1 hrs followed by LPS addition and measured after 4 hrs; type: functional, cell-based; conditions: dose 0.01-10000 nM, time 5.0 hrs
[9] = molecular target: T1, Cytochrome P450 3A4 (Homo sapiens, UniProt P08684); assay: Inhibition of CYP3A4 in human liver microsomes using testosterone as substrate in presence of NADP by LC-MS/MS analysis; type: ADME, Microsome
T1 sequence (P08684 whole entry): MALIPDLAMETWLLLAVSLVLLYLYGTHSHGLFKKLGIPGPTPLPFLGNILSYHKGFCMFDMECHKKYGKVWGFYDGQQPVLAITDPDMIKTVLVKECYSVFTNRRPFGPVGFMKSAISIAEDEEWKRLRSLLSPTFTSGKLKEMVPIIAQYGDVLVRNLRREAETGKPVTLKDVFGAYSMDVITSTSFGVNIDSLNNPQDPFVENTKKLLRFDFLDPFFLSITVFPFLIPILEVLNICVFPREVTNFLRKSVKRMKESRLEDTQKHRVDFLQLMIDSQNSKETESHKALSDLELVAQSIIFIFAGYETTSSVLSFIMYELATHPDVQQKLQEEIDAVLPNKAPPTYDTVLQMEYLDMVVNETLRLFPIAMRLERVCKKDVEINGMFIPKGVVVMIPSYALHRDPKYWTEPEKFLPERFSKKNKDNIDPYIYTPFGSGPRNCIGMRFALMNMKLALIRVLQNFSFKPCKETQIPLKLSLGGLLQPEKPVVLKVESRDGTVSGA

[10] = Oral bioavailability in male Beagle dog at 2 mg/kg measured after 24 hrs by LC-MS/MS analysis; type: ADME, organism-based, Canis lupus familiaris; conditions: in vivo
[11] = test system: Rattus norvegicus; assay: Antiarthritic activity in Mycobacterium tuberculosis H37R-induced female Lewis rat model of arthritis assessed as reduction in joint swelling by measuring paw volume score at 1 mg/kg, po administered twice daily for 15 days starting from day 13 after adjuvant administration by water displacement method; type: functional, organism-based; conditions: time 15.0 day
[12] = molecular target: T1, Cytochrome P450 3A4; assay: Inhibition of CYP3A4 in human liver microsomes using midazolam as substrate in presence of NADP by LC-MS/MS analysis; type: ADME, Microsome
[13] = Cmax in female Lewis rat at 3 mg/kg, po measured after 24 hrs by LC-MS/MS analysis; type: ADME, organism-based; conditions: in vivo
[14] = test system: Rattus norvegicus; assay: Antiarthritic activity in Mycobacterium tuberculosis H37R-induced female Lewis rat model of arthritis assessed as reduction in clinical score at 1 mg/kg, po administered twice daily for 15 days starting from day 13 after adjuvant administration; type: functional, organism-based; conditions: time 15.0 day
[15] = Inhibition of N-terminal GST-tagged wildtype human P38alpha (4 to 152 residues) extracted from Escherichia coli/GST-tagged PRAK (unknown origin) assessed as reduction in HSP27 phosphorylation incubated for 2 hrs in presence of ATP and HSP27-FITC peptide by fluorescence polarization based IMAP assay
[16] = Cmax in male Beagle dog at 2 mg/kg, po measured after 24 hrs by LC-MS/MS analysis; type: ADME, organism-based, Canis lupus familiaris; conditions: in vivo

Cc1cnc(-c2ccnc(C(C)(C)O)n2)c(F)c1-n1c(C)cc(O[C@@H](C)c2ncc(F)cc2F)c(C)c1=O
AUC(0-t) at 24 h [1]: 2390 ng·h/mL
Cmax [2]: 1140 ng/mL
AUC(0-t) at 24 h [3]: 4340 ng·h/mL
half-life [4]: 3.9 h
Activity [5]: Active
Ratio IC50 [6]: 1170
AUC(0-t) at 24 h [7]: 5080 ng·h/mL
inhibition [8]: Active
IC50 [9]: > 40 µM
bioavailability [10]: 68%
Activity [11]: Active; Significantly Superior Activity Observed Compared To 3 Mg/Kg Of Compound 1
IC50 [12]: > 40 µM
Cmax [13]: 916 ng/mL
Activity [14]: Active; Comparable To 3 Mg/Kg Of Compound 1
IC50 [15]: 5.85 µM
Cmax [16]: 1120 ng/mL
